≈ marks a conversion by molar mass, not a printed value. Like-named read-outs stand apart in the source and are kept apart here.
Test system: E. faecalis ATCC 29212
Assay: Broth microdilution MIC
Assay type: cell-based, Enterococcus faecalis
Details: Enterococcus faecalis
Experimental: The process for preparing susceptibility test medium are the following steps: • a. Preparing Mueller Hinton Broth II medium by adding 22 grams powdered media to 1.0 liter distilled water; • b. Autoclaving (121° C., 15 psi, 15 minutes) and cooling the medium; • c. Adding Oxyrase® up to about 10% final volume and keeping at 35-37° C. in an incubator for 30 minutes; • d. Adding about 50 μL to each well of a 96 well microtiter plate; • e. Weighing drug and adding broth to drug to bring up to about (standard 128 μg/ml); • f. Adding 50 μL of the drug to the first column of the titer plate; • g. Diluting by two-fold serial diluting across or down the plate. • h. Preparing a Prompt™ inoculum at 10^8 CFU/ml; • i. Diluting inoculum 1:100 in the broth at […] in 9.9 ml (1:100) is 10^6 colony forming units (CFU) forming the adjusted inoculum; • j. Adding 50 μL of the adjusted inoculum to the wells of the microtiter plate; • k. Incubating the plates at 35-37° C. for 18-22 hours; and • l. Reading, with the unaided eye, the MIC.
The in vitro activities of tigecycline and control antibiotics were determined by the broth microdilution method as recommended by the NCCLS. (National Committee for Clinical Laboratory Standards, 2003. Methods for Dilution Antimicrobial Susceptibility Tests for Bacteria That Grow Aerobically; Approved Standards: M7-A6, Sixth ed, vol. 23., National Committee for Clinical Laboratory Standards Wayne, Pa.) was used for the standard procedures. MBH with 5% lysed horse blood was used for testing S. pneumoniae and Haemophilus Test Medium was used for testing H. influenzae. Oxyrase® (Oxyrase Inc, Mansfield, Ohio) was used according to the manufacturer's instructions by adding 1 ml of Oxyrase® to 50 ml of media. Media age studies were performed by preparing MHB in multiple flasks, then storing the media under various conditions. MICs were usually performed in duplicate on each day of testing. Storage under anaerobic conditions was conducted in an anaerobic chamber (MACS MG 1000, Don Whitley Scientific LTD). The pH of the media was determined by pH meter (Corning 430). A comparison of the in vitro activity of tigecycline by agar and broth dilution methodolgies with and without Oxyrase® against clinical isolates is shown in Table 1.

CN(C)c1cc(NC(=O)CNC(C)(C)C)c(O)c2c1C[C@H]1C[C@H]3[C@H](N(C)C)C(O)=C(C(N)=O)C(=O)[C@@]3(O)C(O)=C1C2=O [Tigecycline, tigecycline]
MIC (ATCC29212, 0 h, E. faecalis ATCC 29212, Day 0, Pre-prepared media, room temperature, N = 6): 0.25 µg/mL (≈ 0.427 µM) | MIC (ATCC29212, 0 h, E. faecalis ATCC 29212, Day 0, media Fresh from Powder 2° C., N = 6): 0.03 µg/mL (≈ 0.0512 µM) | MIC (ATCC29212, 0 h, E. faecalis ATCC 29212, Day 0, media Fresh from Powder, room temperature, N = 6): 0.03 µg/mL (≈ 0.0512 µM) | MIC (ATCC29212, 24 h, E. faecalis ATCC 29212, Day 1, Pre-prepared media, room temperature, N = 6): 0.25 µg/mL (≈ 0.427 µM) | MIC (ATCC29212, 24 h, E. faecalis ATCC 29212, Day 1, media Fresh from Powder 2° C., N = 6): 0.03 µg/mL (≈ 0.0512 µM) | MIC (ATCC29212, 24 h, E. faecalis ATCC 29212, Day 1, media Fresh from Powder, room temperature, N = 6): 0.03 to 0.06 µg/mL (≈ 0.0512 to 0.102 µM) | MIC (ATCC29212, 168 h, E. faecalis ATCC 29212, Day 7, Pre-prepared media, room temperature, N = 6): 0.25 µg/mL (≈ 0.427 µM) | MIC (ATCC29212, 168 h, E. faecalis ATCC 29212, Day 7, media Fresh from Powder 2° C., N = 6): 0.06 µg/mL (≈ 0.102 µM) | MIC (ATCC29212, 168 h, E. faecalis ATCC 29212, Day 7, media Fresh from Powder, room temperature, N = 6): 0.12 to 0.25 µg/mL (≈ 0.205 to 0.427 µM) | MIC (ATCC29212, 336 h, E. faecalis ATCC 29212, Day 14, Pre-prepared media, room temperature, N = 6): 0.25 to 0.5 µg/mL (≈ 0.427 to 0.854 µM) | MIC (ATCC29212, 336 h, E. faecalis ATCC 29212, Day 14, media Fresh from Powder 2° C., N = 6): 0.25 µg/mL (≈ 0.427 µM) | MIC (ATCC29212, 336 h, E. faecalis ATCC 29212, Day 14, media Fresh from Powder, room temperature, N = 6): 0.25 µg/mL (≈ 0.427 µM) | MIC (ATCC29212, 336 h, read-out: Minimal Inhibitory Concentration, E. faecalis ATCC29212, media Aged Aerobic (2 weeks at RT under room air), N = 4): 0.25 µg/mL (≈ 0.427 µM) | MIC (ATCC29212, 504 h, E. faecalis ATCC 29212, Day 21, Pre-prepared media, room temperature, N = 6): 0.25 to 0.5 µg/mL (≈ 0.427 to 0.854 µM) | MIC (ATCC29212, 504 h, E. faecalis ATCC 29212, Day 21, media Fresh from Powder 2° C., N = 6): 0.25 µg/mL (≈ 0.427 µM) | MIC (ATCC29212, 504 h, E. faecalis ATCC 29212, Day 21, media Fresh from Powder, room temperature, N = 6): 0.25 µg/mL (≈ 0.427 µM) | MIC (ATCC29212, 672 h, E. faecalis ATCC 29212, Day 28, Pre-prepared media, room temperature, N = 6): 0.25 to 0.5 µg/mL (≈ 0.427 to 0.854 µM) | MIC (ATCC29212, 672 h, E. faecalis ATCC 29212, Day 28, media Fresh from Powder 2° C., N = 6): 0.12 to 0.25 µg/mL (≈ 0.205 to 0.427 µM) | MIC (ATCC29212, 672 h, E. faecalis ATCC 29212, Day 28, media Fresh from Powder, room temperature, N = 6): 0.12 to 0.25 µg/mL (≈ 0.205 to 0.427 µM) | MIC (ATCC29212, read-out: Minimal Inhibitory Concentration (modal value), E. faecalis ATCC29212, Aged Media + Oxyrase, N = 8): 0.12 µg/mL | MIC (ATCC29212, read-out: Minimal Inhibitory Concentration (modal value), E. faecalis ATCC29212, Aged media, N = 8): 0.5 µg/mL (≈ 0.854 µM) | MIC (ATCC29212, read-out: Minimal Inhibitory Concentration (modal value), E. faecalis ATCC29212, Fresh Media + Oxyrase, N = 8): 0.06 µg/mL | MIC (ATCC29212, read-out: Minimal Inhibitory Concentration (modal value), E. faecalis ATCC29212, Freshly Prepared Media, N = 8): 0.06 to 0.12 µg/mL (≈ 0.102 to 0.205 µM) | MIC (ATCC29212, read-out: Minimal Inhibitory Concentration, E. faecalis ATCC 29212, 2% Oxyrase): 0.03 µg/mL (≈ 0.0512 µM) | MIC (ATCC29212, read-out: Minimal Inhibitory Concentration, E. faecalis ATCC29212, Aged Media + Oxyrase, N = 8): 0.12 µg/mL | MIC (ATCC29212, read-out: Minimal Inhibitory Concentration, E. faecalis ATCC29212, Aged media, N = 8): 0.25 to 0.5 µg/mL (≈ 0.427 to 0.854 µM) | MIC (ATCC29212, read-out: Minimal Inhibitory Concentration, E. faecalis ATCC29212, Commercially Prepared media, N = 4): 0.12 to 0.25 µg/mL (≈ 0.205 to 0.427 µM) | MIC (ATCC29212, read-out: Minimal Inhibitory Concentration, E. faecalis ATCC29212, Fresh Media + Oxyrase, N = 8): 0.06 µg/mL | MIC (ATCC29212, read-out: Minimal Inhibitory Concentration, E. faecalis ATCC29212, Freshly Prepared Media, N = 8): 0.06 to 0.12 µg/mL (≈ 0.102 to 0.205 µM) | MIC (ATCC29212, read-out: Minimal Inhibitory Concentration, E. faecalis ATCC29212, Freshly Prepared media, N = 4): 0.03 µg/mL (≈ 0.0512 µM)

From patent publication US20050130252A1, “Stabilized susceptibility tests of aerobic pathogens” (Wyeth Holdings Corporation, priority 2003, published 2005)
